Test results as given in patent US6730293B1, “Compositions and methods for treating inflammatory diseases of the skin” (CellGate, Inc., priority 1999, dated 2004).
Peptide text beside a SMILES is read from it. * marks the point of attachment. FITC = O=C1OC2(c3ccc(O)cc3Oc3cc(O)ccc32)c2ccc(NC(=S)*)cc21; Ahx = NCCCCCC(=O)O

How the values were obtained:
Jurkat cells [1] = test: FACS cellular uptake assay of fluorescently labeled peptides and peptoids; format: cell-based, human; conditions: for additional loss of intracellular fluorescence from the one amino acid truncated analogs / loss of intracellular fluorescence compared to the parent sequence (Tat49-57): 15 min at 23° C.; for cellular uptake compared with Tat49-57: 23° C., 2% FCS
Method: Cellular Uptake Assay. […] The accuracy of this method for determining concentration was established by weighing selected samples and dissolving them in a known amount of PBS buffer. The concentrations determined by UV spectroscopy correlated with the amounts weighed out manually. Jurkat cells (human T cell line), murine B cells (CH27), or human PBL cells were grown in 10% fetal calf serum and DMEM and each of these were used for cellular uptake experiments. […] The microtiter plates were centrifuged and the cells were isolated, washed with cold PBS (3×250 μL), incubated with 0.05% trypsin/0.53 mM EDTA at 37° C. for 5 min, washed with cold PBS, and resuspended in PBS containing 0.1% propidium iodide. The cells were analyzed using fluorescent flow cytometry (FACScan, Becton Dickinson) and cells staining with propidium iodide were excluded from the analysis. The data presented is the mean fluorescent signal for the 5000 cells collected.
Inhibition of Cellular Uptake with Sodium Azide. The assays were performed as previously described with the exception that the cells used were preincubated for 30 min with 0.5% sodium azide in 2% FCS/PBS buffer prior to the addition of fluorescent peptides and the cells were washed with 0.5% sodium azide in PBS buffer. All of the cellular uptake assays were run in parallel in the presence and absence of sodium azide.
To determine the structural requirements for the cellular uptake of short arginine-rich peptides, a series of fluorescently-labeled truncated analogues of Tat49-57 were synthesized using standard solid-phase chemistry. See, e.g., Atherton, E.et al. SOLID-PHASE PEPTIDE […] (IRL: Oxford, Engl. 1989). A fluorescein moiety was attached via an aminohexanoic acid spacer on the amino termini. The ability of these fluorescently labeled peptides to enter Jurkat cells was then analyzed using fluorescent activated cell sorting (FACS) ( ). The peptide constructs tested were Tat49-57 (Fl-ahx-[…]): Tat49-56 (Fl-ahx-[…]), Tat49-55 (Fl-ahx-RKKRRQR), Tat50-57 (Fl-ahx-[…]), and […] (Fl-ahx-KRRQRRR). Differentiation between cell surface binding and internalization was accomplished throughout by running a parallel set of assays in the presence and absence of sodium azide. Because sodium azide inhibits energy-dependent cellular uptake but not cell surface binding, the difference in fluorescence between the two assays provided the amount of fluorescence resulting from internalization.

Jurkat cells [2] = test: Cellular uptake kinetics assay (Michaelis-Menton); format: cell-based, human; conditions: for Vmax: Jurkat cells, 30, 60, 120, 240 seconds; for Km values, fold greater than that found for Tat49-57: discussion; for rate of cell entry, fold faster than Tat47-59: from Km values
Method: Cellular Uptake Kinetics Assay. […] The reactions were quenched by diluting the samples into 2% FCS/PBS (5 mL). The assays were then worked up and analyzed by fluorescent flow cytometry as previously described.

skin of nude mice = test: Penetration of taxol-biotinylated D-arginine conjugates into skin of nude mice; format: in vivo; conditions: back of nude mice, 1 mM-100 μM in PBS, 30, 60, 120 minutes
Method: Slides were analyzed by fluorescent microscopy.

SMILES: N=C(N)NCCC[C@@H](NC(=O)[C@@H](CCCNC(=N)N)NC(=O)[C@@H](CCCNC(=N)N)NC(=O)[C@@H](CCCNC(=N)N)NC(=O)[C@@H](CCCNC(=N)N)NC(=O)[C@@H](CCCNC(=N)N)NC(=O)[C@@H](CCCNC(=N)N)NC(=O)[C@@H](CCCNC(=N)N)NC(=O)[C@@H](CCCNC(=N)N)NC(=O)CCCCCNC(=S)Nc1ccc2c(c1)C(=O)OC21c2ccc(O)cc2Oc2cc(O)ccc21)C(N)=O (single isomer, unassigned) [R9]
- cellular uptake of peptoids compared with d-arginine oligomers / other peptoids (Jurkat cells [1]; 4 min at 23° C.): comparable to N-btg9
- relative order of uptake (Jurkat cells [1]; 4 min at 23° C.): N-hxg9 (6 methylene)>N-btg9 (4 methylene)>r9 (3 methylene)>N-arg9 (3 methylene)>N-etg9 (2 methylene)
- Vmax (Jurkat cells [2]): 0.38
- Km values, fold greater than that found for Tat49-57 (Jurkat cells [2]): 30 fold
- Km values, fold greater than that found for Tat49-57 (Jurkat cells [2]; listed as r9): 100 fold
- rate of cell entry, fold faster than Tat47-59 (Jurkat cells [2]): ~20 fold

SMILES: C[C@H](NC(=O)[C@H](CCCNC(=N)N)NC(=O)[C@H](CCCNC(=N)N)NC(=O)[C@H](CCCCN)NC(=O)[C@H](CCCCN)NC(=O)[C@H](CCCNC(=N)N)NC(=O)CCCCCNC(=S)Nc1ccc2c(c1)C(=O)OC21c2ccc(O)cc2Oc2cc(O)ccc21)C(=O)N[C@@H](CCCNC(=N)N)C(=O)N[C@@H](CCCNC(=N)N)C(=O)N[C@@H](CCCNC(=N)N)C(N)=O [A-54] ({FITC-Ahx}-RKKRRARRR-NH2)
- loss of cellular uptake on alanine substitution of Tat49-57 (Jurkat cells [1]; 12 min at 23° C.): modest decrease

SMILES: CC[C@H](C)[C@H](NC(=O)[C@H](CCCCN)NC(=O)[C@@H](NC(=O)[C@H](CCC(N)=O)NC(=O)[C@H](CCCNC(=N)N)NC(=O)CCCCCNC(=S)Nc1ccc2c(c1)C(=O)OC21c2ccc(O)cc2Oc2cc(O)ccc21)[C@@H](C)CC)C(=O)N[C@@H](Cc1c[nH]c2ccccc12)C(=O)N[C@@H](Cc1ccccc1)C(=O)N[C@@H](CCC(N)=O)C(=O)N[C@@H](CC(N)=O)C(=O)N[C@@H](CCCNC(=N)N)C(=O)N[C@@H](CCCNC(=N)N)C(=O)N[C@@H](CCSC)C(=O)N[C@@H](CCCCN)C(=O)N[C@@H](Cc1c[nH]c2ccccc12)C(=O)N[C@@H](CCCCN)C(=O)N[C@@H](CCCCN)C(N)=O [Antennapedia43-58, reference compound]
- Vmax (Jurkat cells [2]): 0.41
- rate of cell entry, fold faster than Tat47-59 (Jurkat cells [2]): approximately 2 fold

SMILES: CC(=O)O[C@H]1C(=O)[C@@]2(C)[C@H]([C@H](OC(=O)c3ccccc3)[C@]3(O)C[C@H](OC(=O)[C@H](OC(=O)NCCCC[C@H](NC(=O)[C@@H](CCCNC(=N)N)NC(=O)[C@@H](CCCNC(=N)N)NC(=O)[C@@H](CCCNC(=N)N)NC(=O)[C@@H](CCCNC(=N)N)NC(=O)[C@@H](CCCNC(=N)N)NC(=O)CCCCCNC(=O)CCCC[C@@H]4SC[C@@H]5NC(=O)N[C@@H]54)C(N)=O)[C@@H](NC(=O)c4ccccc4)c4ccccc4)C(C)=C1C3(C)C)[C@]1(OC(C)=O)CO[C@@H]1C[C@@H]2O [B-aca-r5-K-taxol]
- penetration into skin (fluorescent streptavidin staining) (skin of nude mice): very little uptake

SMILES: CC(=O)O[C@H]1C(=O)[C@@]2(C)[C@H]([C@H](OC(=O)c3ccccc3)[C@]3(O)C[C@H](OC(=O)[C@H](OC(=O)NCCCC[C@H](NC(=O)[C@@H](CCCNC(=N)N)NC(=O)[C@@H](CCCNC(=N)N)NC(=O)[C@@H](CCCNC(=N)N)NC(=O)[C@@H](CCCNC(=N)N)NC(=O)[C@@H](CCCNC(=N)N)NC(=O)[C@@H](CCCNC(=N)N)NC(=O)[C@@H](CCCNC(=N)N)NC(=O)CCCCCNC(=O)CCCC[C@@H]4SC[C@@H]5NC(=O)N[C@@H]54)C(N)=O)[C@@H](NC(=O)c4ccccc4)c4ccccc4)C(C)=C1C3(C)C)[C@]1(OC(C)=O)CO[C@@H]1C[C@@H]2O [B-aca-r7-K-taxol]
- penetration into skin (fluorescent streptavidin staining) (skin of nude mice): effectively entered into and across the epidermis and into the dermis

SMILES: CC(=O)O[C@H]1C(=O)[C@@]2(C)[C@H]([C@H](OC(=O)c3ccccc3)[C@]3(O)C[C@H](OC(=O)[C@H](OC(=O)NCCCC[C@H](NC(=O)[C@@H](CCCNC(=N)N)NC(=O)[C@@H](CCCNC(=N)N)NC(=O)[C@@H](CCCNC(=N)N)NC(=O)[C@@H](CCCNC(=N)N)NC(=O)[C@@H](CCCNC(=N)N)NC(=O)[C@@H](CCCNC(=N)N)NC(=O)[C@@H](CCCNC(=N)N)NC(=O)[C@@H](CCCNC(=N)N)NC(=O)[C@@H](CCCNC(=N)N)NC(=O)CCCCCNC(=O)CCCC[C@@H]4SC[C@@H]5NC(=O)N[C@@H]54)C(N)=O)[C@@H](NC(=O)c4ccccc4)c4ccccc4)C(C)=C1C3(C)C)[C@]1(OC(C)=O)CO[C@@H]1C[C@@H]2O [B-aca-r9-K-taxol]
- penetration into skin (fluorescent streptavidin staining) (skin of nude mice): effectively entered into and across the epidermis and into the dermis

SMILES: N=C(N)NCCC[C@H](NC(=O)[C@H](CCC(N)=O)NC(=O)[C@H](CCCNC(=N)N)NC(=O)[C@H](CCCNC(=N)N)NC(=O)[C@H](CCCCN)NC(=O)[C@H](CCCCN)NC(=O)[C@H](CCCNC(=N)N)NC(=O)CCCCCNC(=S)Nc1ccc2c(c1)C(=O)OC21c2ccc(O)cc2Oc2cc(O)ccc21)C(N)=O [Tat49-55, Fl-ahx-RKKRRQR] ({FITC-Ahx}-RKKRRQR-NH2)
- additional loss of intracellular fluorescence from the one amino acid truncated analogs (Jurkat cells [1]): 60%

SMILES: N=C(N)NCCC[C@H](NC(=O)[C@H](CCCNC(=N)N)NC(=O)[C@H](CCC(N)=O)NC(=O)[C@H](CCCNC(=N)N)NC(=O)[C@H](CCCNC(=N)N)NC(=O)[C@H](CCCCN)NC(=O)[C@H](CCCCN)NC(=O)[C@H](CCCNC(=N)N)NC(=O)CCCCCNC(=S)Nc1ccc2c(c1)C(=O)OC21c2ccc(O)cc2Oc2cc(O)ccc21)C(N)=O [Tat49-56] ({FITC-Ahx}-RKKRRQRR-NH2)
- loss of intracellular fluorescence compared to the parent sequence (Tat49-57) (Jurkat cells [1]): 80%

SMILES: N=C(N)NCCC[C@H](NC(=O)[C@H](CCCNC(=N)N)NC(=O)[C@H](CCCNC(=N)N)NC(=O)[C@H](CCC(N)=O)NC(=O)[C@H](CCCNC(=N)N)NC(=O)[C@H](CCCNC(=N)N)NC(=O)[C@H](CCCCN)NC(=O)[C@H](CCCCN)NC(=O)[C@H](CCCNC(=N)N)NC(=O)CCCCCNC(=S)Nc1ccc2c(c1)C(=O)OC21c2ccc(O)cc2Oc2cc(O)ccc21)C(N)=O [Tat49-57, reference compound]
- cellular uptake compared with Tat49-57 (Jurkat cells [1]): between that of R6 and R7
- Vmax (Jurkat cells [2]): 0.38

SMILES: N=C(N)NCCC[C@H](NC(=O)[C@H](CCCNC(=N)N)NC(=O)[C@H](CCCNC(=N)N)NC(=O)[C@H](CCC(N)=O)NC(=O)[C@H](CCCNC(=N)N)NC(=O)[C@H](CCCNC(=N)N)NC(=O)[C@H](CCCCN)NC(=O)[C@H](CCCCN)NC(=O)CCCCCNC(=S)Nc1ccc2c(c1)C(=O)OC21c2ccc(O)cc2Oc2cc(O)ccc21)C(N)=O [Tat50-57] ({FITC-Ahx}-KKRRQRRR-NH2)
- loss of intracellular fluorescence compared to the parent sequence (Tat49-57) (Jurkat cells [1]): 80%

SMILES: N=C(N)NCCC[C@H](NC(=O)[C@H](CCCNC(=N)N)NC(=O)[C@H](CCCNC(=N)N)NC(=O)[C@H](CCC(N)=O)NC(=O)[C@H](CCCNC(=N)N)NC(=O)[C@H](CCCNC(=N)N)NC(=O)[C@H](CCCCN)NC(=O)CCCCCNC(=S)Nc1ccc2c(c1)C(=O)OC21c2ccc(O)cc2Oc2cc(O)ccc21)C(N)=O [Tat51-57, Fl-ahx-KRRQRRR] ({FITC-Ahx}-KRRQRRR-NH2)
- additional loss of intracellular fluorescence from the one amino acid truncated analogs (Jurkat cells [1]): did not further diminish the amount of internalization

SMILES: N=C(N)NCCC[C@H](NC(=O)[C@H](CCCCN)NC(=O)[C@H](CCCCN)NC(=O)[C@H](CCCNC(=N)N)NC(=O)[C@H](CCCNC(=N)N)NC(=O)[C@H](CCC(N)=O)NC(=O)[C@H](CCCNC(=N)N)NC(=O)[C@H](CCCNC(=N)N)NC(=O)[C@H](CCCNC(=N)N)NC(=O)CCCCCNC(=S)Nc1ccc2c(c1)C(=O)OC21c2ccc(O)cc2Oc2cc(O)ccc21)C(N)=O [Tat57-49]
- cellular uptake compared with Tat49-57 (Jurkat cells [1]): more effective at entering Jurkat cells then Tat49-57

SMILES: N=C(N)NCCC[C@@H](NC(=O)[C@@H](CCCNC(=N)N)NC(=O)[C@@H](CCCNC(=N)N)NC(=O)[C@@H](CCC(N)=O)NC(=O)[C@@H](CCCNC(=N)N)NC(=O)[C@@H](CCCNC(=N)N)NC(=O)[C@@H](CCCCN)NC(=O)[C@@H](CCCCN)NC(=O)[C@@H](CCCNC(=N)N)NC(=O)CCCCCNC(=S)Nc1ccc2c(c1)C(=O)OC21c2ccc(O)cc2Oc2cc(O)ccc21)C(N)=O [d-Tat49-57, Fl-ahx-rkkrrqrrr]
- cellular uptake compared with Tat49-57 (Jurkat cells [1]): more effective at entering Jurkat cells then Tat49-57

SMILES: N=C(N)NCCC[C@@H](NC(=O)[C@@H](CCCCN)NC(=O)[C@@H](CCCCN)NC(=O)[C@@H](CCCNC(=N)N)NC(=O)[C@@H](CCCNC(=N)N)NC(=O)[C@@H](CCC(N)=O)NC(=O)[C@@H](CCCNC(=N)N)NC(=O)[C@@H](CCCNC(=N)N)NC(=O)[C@@H](CCCNC(=N)N)NC(=O)CCCCCNC(=S)Nc1ccc2c(c1)C(=O)OC21c2ccc(O)cc2Oc2cc(O)ccc21)C(N)=O [d-Tat57-49, Fl-ahx-rrrqrrkkr]
- cellular uptake compared with Tat49-57 (Jurkat cells [1]): more effective at entering Jurkat cells then Tat49-57
